{
  "source": "paper PMC6691587",
  "about": "“New CXCR1/CXCR2 inhibitors represent an effective treatment for kidney or head and neck cancers sensitive or refractory to reference treatments” (Theranostics, 2019)",
  "key": {"RCC4": {"system": "RCC4", "assay": "XTT cell viability assay, RCC4 RCC cells", "assay_type": "cell-based, human", "conditions": "Homo sapiens, RCC4, 48 h, SD 10%, mean of three experiments, read-out: IC50 R4 (Kidney RCC)", "protocol": "(§1) Fifty microliters of sodium 3′-[1-phenylaminocarbonyl)-3,4-tetrazolium]-bis(4-methoxy-6-nitro) benzene sulfonic acid hydrate (XTT) reagent was added to each well. The assay is based on the cleavage of the yellow tetrazolium salt XTT to form an orange formazan dye by metabolically active cells. This bio-reduction occurs in viable cells only and is related to NAD(P)H production through glycolysis. Therefore, the amount of formazan dye measured at 490 nm directly correlated with the number of metabolically active cells reflecting cell proliferation and viability. Each assay was performed in quadruplicate."}, "MDA-MD-231": {"system": "MDA-MD-231", "assay": "XTT cell viability assay, breast cancer cells", "assay_type": "cell-based, human", "conditions": "Homo sapiens, 48 h, SD 10%, mean of three experiments", "protocol": "as §1"}, "Molm13": {"system": "Molm13", "assay": "XTT cell viability assay, Molm13 AML cells", "assay_type": "cell-based, human", "conditions": "Homo sapiens, MOLM-13, 48 h, SD 10%, mean of three experiments", "protocol": "as §1"}, "Molm14": {"system": "Molm14", "assay": "XTT cell viability assay, Molm14 AML cells", "assay_type": "cell-based, human", "conditions": "Homo sapiens, MOLM-14, 48 h, SD 10%, mean of three experiments", "protocol": "as §1"}, "SKM1": {"system": "SKM1", "assay": "XTT cell viability assay, SKM1 MDS cells", "assay_type": "cell-based, human", "conditions": "Homo sapiens, SKM-1, 48 h, SD 10%, mean of three experiments, read-out: IC50 SK (MDS)", "protocol": "as §1"}, "[1]": {"system": "primary kidney tumor cells (CC)", "assay": "Cell viability, primary kidney tumor cells CC", "assay_type": "cell-based", "protocol": "as §1\n(§2) For the experiments with C29, we confirmed all the results by evaluating the cell viability. Cell viability and cell death was assessed using the ADAM-MC apparatus (NanoEnTek, Guro-gu, Seoul, Korea) based on fluorescent propidium iodide staining according to the manufacturer's instructions.\n(§3) To determine the selectivity of the activity of the substances tested, the selectivity index (SI) was calculated according to the equation previously described where SI = IC50 of a compound in a normal cell line/IC50 of the same compound in cancer cell line. The IC50 is the concentration required to kill 50% of the cell population."}, "[2]": {"system": "primary kidney tumor cells (TF)", "assay": "Cell viability, primary kidney tumor cells TF", "assay_type": "cell-based", "protocol": "as §1, §2, §3"}, "CXCR1": {"target": "T1, CXCR1 (Homo sapiens, UniProt P25024)", "T1 construct": "CXCR1/2 are expressed on endothelial cells and participate in ELR^+CXCL-mediated angiogenesis; endogenous in cells; host or cells: HuVEC", "T1 sequence (P25024 whole entry)": "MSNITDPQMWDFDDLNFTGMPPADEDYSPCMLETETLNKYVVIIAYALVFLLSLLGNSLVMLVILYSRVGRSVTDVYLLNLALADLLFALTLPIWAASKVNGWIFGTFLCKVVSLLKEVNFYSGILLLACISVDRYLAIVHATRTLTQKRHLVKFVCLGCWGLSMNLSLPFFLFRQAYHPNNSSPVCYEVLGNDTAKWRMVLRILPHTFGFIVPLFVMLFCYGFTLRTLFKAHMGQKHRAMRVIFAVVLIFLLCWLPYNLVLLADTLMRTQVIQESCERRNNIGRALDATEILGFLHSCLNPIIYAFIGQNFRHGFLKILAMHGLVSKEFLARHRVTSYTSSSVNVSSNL", "assay": "Membrane-associated CXCR1 level in HuVEC by flow cytometry", "assay_type": "cell-based", "conditions": "CXCL7 25 ng/ml 1 h, C29 2.5 µmol/L"}, "HuVEC": {"system": "HuVEC", "assay": "XTT cell viability assay, HuVEC", "assay_type": "cell-based, human", "conditions": "48 h, CXCL5 or CXCL7 100 ng/ml", "protocol": "as §1"}, "[3]": {"system": "cisplatin-resistant CAL27 cells (CAL27R)", "assay": "XTT cell viability assay, cisplatin-resistant CAL27 cells", "assay_type": "cell-based, human", "conditions": "1 to 10 µM 48 h, 2.5 µM 24 to 96 h", "protocol": "as §1"}, "[4]": {"system": "panel of human tumor cell lines", "assay": "XTT screening on a panel of tumor cell lines", "assay_type": "cell-based", "conditions": "Homo sapiens; read-out: IC50 values for several cancer cell lines", "protocol": "as §1"}, "TF and CC cells": {"system": "TF and CC cells", "assay": "FACS analysis of apoptotic markers, primary tumor cells", "assay_type": "cell-based", "conditions": "C29 at 1 µmol/L", "protocol": "(§4) Apoptosis analysis: After stimulation, cells were washed with ice-cold PBS and were stained with the annexin-V-fluo staining kit (Roche, Meylan, France) according to the manufacturer's procedure. Fluorescence was measured using the FL2 (AV) and FL3 (propidium iodide, PI) channels of a fluorescence-activated cell sorter apparatus (Calibur cytometer)."}, "normal cells (15S)": {"system": "normal cells (15S)", "assay": "FACS analysis of apoptotic markers, normal cells", "assay_type": "cell-based", "conditions": "C29 at 1 µmol/L", "protocol": "as §4"}, "[5]": {"assay": "Pharmacokinetic parameters after oral administration", "assay_type": "in vivo", "conditions": "plasma, CD-1 mice, oral gavage 50 mg/kg", "protocol": "The in vivo pharmacokinetic parameters were determined in CD-1 mice at a dose of 50 mg/kg after oral administration. The plasma samples (400 µL) were mixed with acetonitrile (1 mL) to precipitate the proteins and extract the compound. After mixing and sonication, proteins were precipitated by centrifugation and the supernatants were analyzed by UPLCMS/MS."}, "A498 cells": {"system": "A498 cells", "assay": "Ectopic model of RCC (A498 xenograft)", "assay_type": "in vivo, nude (nu/nu) female mice", "protocol": "One microgram of total RNA was used for the reverse transcription, using the QuantiTect Reverse Transcription kit (QIAGEN, Hilden, Germany), with blend of oligo (dT) and random primers to prime first-strand synthesis. SYBR master mix plus (Eurogentec) was used for qPCR. The mRNA level was normalized to 36B4 mRNA. The sequences of oligo nucleotides used in our experiments are describe in Table S1.\nThese studies were carried out in strict accordance with the recommendations in the Guide for the Care and Use of Laboratory Animals. Our experiments were approved by the ''Comité National Institutionnel d'Ethique pour l'Animal de Laboratoire'' (reference: PEA-255 and PEA-277). Cells were injected subcutaneously into the flank of 5-week-old nude (nu/nu) female mice (Janvier). When the tumor reached 100 mm^3, mice were treated. The tumor volume was determined with a caliper (v = L*l2*0.5).\n1-Seven million A498 cells were injected subcutaneously. Mice were treated five times a week for 4 weeks, by gavage with placebo (dextrose water vehicle) or C29 (50 mg/kg).\nSections of formol-fixed and paraffin-embedded tumors were incubated with monoclonal anti-Ki67 (clone MIB1, DAKO) or anti-CD31 (clone MEC 13.3, BD Pharmingen) antibodies. A biotinylated secondary antibody (DAKO) was applied and binding was detected with the substrate diaminobenzidine against a hematoxylin counterstain."}, "[6]": {"assay": "Hematological, renal and hepatic toxicity", "assay_type": "in vivo"}, "[7]": {"conditions": "C29 100mg/kg oral gavage, three weeks, ns vs CT"}},
  "note": "Several values for one entry are separate records, joined by “and”; a condition that tells them apart may be missing. Equal values may be shown once.",
  "data": [
    {"smiles": "O=C(Nc1cccc(Cl)c1)Nc1nc2ccc([N+](=O)[O-])cc2s1", "note": "[C29]", "values": [
      {"measurement": "IC50", "setting": "RCC4", "result": 5, "unit": "µM"},
      {"measurement": "IC50", "setting": "MDA-MD-231", "result": 2.5, "unit": "µM"},
      {"measurement": "IC50", "setting": "Molm13", "result": 7, "unit": "µM"},
      {"measurement": "IC50", "setting": "Molm14", "result": 4, "unit": "µM"},
      {"measurement": "IC50", "setting": "SKM1", "result": 5, "unit": "µM"},
      {"measurement": "IC50", "setting": "[1]; CXCR1+/CXCR2+", "result": 2, "unit": "µM"},
      {"measurement": "proliferation of primary kidney tumor cells CC", "setting": "[1]; Figure S8A-B", "result": "significantly decreased"},
      {"measurement": "Selectivity index CC", "setting": "[1]; SI = IC50 in normal cells (15S)/IC50 in CC", "result": 6.25},
      {"measurement": "IC50", "setting": "[2]; CXCR1+/CXCR2+", "result": 3.2, "unit": "µM"},
      {"measurement": "proliferation of primary kidney tumor cells TF", "setting": "[2]; Figure S8A-B", "result": "significantly decreased"},
      {"measurement": "Selectivity index TF", "setting": "[2]; SI = IC50 in normal cells (15S)/IC50 in TF", "result": 3.91},
      {"measurement": "CXCR1 levels at the plasma membrane", "setting": "CXCR1", "result": "increased"},
      {"measurement": "basal and CXCL5/CXCL7-dependent HuVECs viability", "setting": "HuVEC", "result": "inhibited"},
      {"measurement": "effect on cisplatin-resistant CAL27 cell viability", "setting": "[3]", "result": "equivalent"},
      {"measurement": "IC50", "setting": "[4]", "result": "< 20", "unit": "µM"},
      {"measurement": "apoptotic markers in TF and CC cells", "setting": "TF and CC cells", "result": "detected apoptotic markers"},
      {"measurement": "apoptotic markers in normal cells (15S)", "setting": "normal cells (15S)", "result": "not the case for normal cells"},
      {"measurement": "half-life", "setting": "[5]; CD-1, mouse, po, 50 mg/kg, formulated at 7.6 mg/mL, read-out: half-life (t ½)", "result": 3.17, "unit": "h"},
      {"measurement": "AUC", "setting": "[5]; mouse", "result": "~1420", "unit": "ng·h/mL"},
      {"measurement": "Cmax", "setting": "[5]; mouse", "result": "900 ng/mL and 2.6 µM"},
      {"measurement": "Tmax", "setting": "[5]; mouse", "result": 0.5, "unit": "h"},
      {"measurement": "AUC(0-t)", "setting": "[5]; mouse, read-out: AUC last PO (converted)", "result": 1420, "unit": "ng·h/mL"},
      {"measurement": "mRNA level of murine CD31, experimental RCC", "setting": "A498 cells", "result": "decreased"},
      {"measurement": "decrease in the tumor weight, RCC", "setting": "A498 cells; 50 mg/kg gavage", "result": 40, "unit": "%"},
      {"measurement": "proliferation marker Ki-67, experimental RCC", "setting": "A498 cells; 50 mg/kg gavage", "result": "decreased"},
      {"measurement": "weight loss of the animals, RCC model", "setting": "A498 cells; 50 mg/kg gavage", "result": "did not observe any weight loss"},
      {"measurement": "decrease of the tumor volume at the end of the experiment, RCC", "setting": "A498 cells; 50 mg/kg gavage five times a week for 4 weeks", "result": "more than 65%"},
      {"measurement": "PI3K/AKT and ERK pathways in tumor lysates, experimental RCC", "setting": "A498 cells; immunoblotting", "result": "inhibited PI3K/AKT but not the ERK pathway"},
      {"measurement": "mRNA levels of ERL+CXCL cytokines (CXCL5/7/8), experimental RCC", "setting": "A498 cells; qPCR, VEGFA not decreased", "result": "significantly decreased"},
      {"measurement": "hematological, renal or hepatic toxicity", "setting": "[6]; 100mg/kg by oral gavage five times a week for three weeks", "result": "did not induce hematological, renal or hepatic toxicity"},
      {"measurement": "Basophils", "setting": "[6]; [7]", "result": "0.07089 ± 0.02", "unit": "k/µl"},
      {"measurement": "Eosinophils", "setting": "[6]; [7]", "result": "0.1760 ± 0.04", "unit": "k/µl"},
      {"measurement": "Hematocrit", "setting": "[6]; [7]", "result": "26.22 ± 2.45", "unit": "%"},
      {"measurement": "Hemoglobin", "setting": "[6]; [7]", "result": "14.67 ± 1.22", "unit": "g/dL"},
      {"measurement": "Leucocytes", "setting": "[6]; [7]", "result": "4.239 ± 0.60", "unit": "k/µl"},
      {"measurement": "Lymphocytes", "setting": "[6]; [7]", "result": "2.943 ± 0.38", "unit": "k/µl"},
      {"measurement": "Mean Corpuscular Volume", "setting": "[6]; [7]", "result": "112.0 ± 1.054", "unit": "fL"},
      {"measurement": "Mean corpuscular hemoglobin", "setting": "[6]; [7]", "result": "31.46 ± 0.79", "unit": "pg"},
      {"measurement": "Mean platelet volume", "setting": "[6]; [7]", "result": "12.81 ± 0.08", "unit": "fL"},
      {"measurement": "Monocytes", "setting": "[6]; [7]", "result": "0.2664 ± 0.04", "unit": "k/µl"},
      {"measurement": "Neutrophils", "setting": "[6]; [7]", "result": "0.6760 ± 0.11", "unit": "k/µl"},
      {"measurement": "Platelets", "setting": "[6]; [7]", "result": "375.7 ± 77.93", "unit": "k/µl"},
      {"measurement": "Red blood cells", "setting": "[6]; [7]", "result": "10.33 ± 0.98", "unit": "M/µl"}
    ]}
  ]
}
